The target in the experiment is P2Y purinoceptor 1 (Rattus norvegicus, UniProt P49651). The experiment in a line: Concentration required for calcium mobilization at rat purinergic 2Y1 receptor expressed in HEK 293 cells. Background: A change in cytosolic calcium serves as a functional read-out for many receptors and channels.
Sequence of P2Y purinoceptor 1 (P49651 whole entry): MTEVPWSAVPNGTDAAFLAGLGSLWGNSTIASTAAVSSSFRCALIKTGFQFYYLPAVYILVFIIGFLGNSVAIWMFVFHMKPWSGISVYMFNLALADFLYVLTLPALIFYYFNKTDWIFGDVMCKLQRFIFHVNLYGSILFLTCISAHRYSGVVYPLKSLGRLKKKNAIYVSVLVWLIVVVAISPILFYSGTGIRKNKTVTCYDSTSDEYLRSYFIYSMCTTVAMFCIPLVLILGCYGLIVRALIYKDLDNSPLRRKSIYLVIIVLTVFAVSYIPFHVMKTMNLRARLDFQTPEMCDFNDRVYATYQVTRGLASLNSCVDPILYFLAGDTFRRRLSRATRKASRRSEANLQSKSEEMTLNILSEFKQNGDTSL

`B[PH](O)(OC[C@H]1OC(n2cnc3c(N)nc(Cl)nc32)[C@H](O)[C@@H]1O)OP(=O)(O)OP(=O)(O)O` (stereo partly specified): the EC50 (usually the concentration needed to bring the measured effect to its halfway point) is 4.5 nM.

Values taken from BindingDB's records for doi:10.1021/jm049771u (Bar-Ilan University, 2004).
